This is an account of results in the supplement of paper PMC11061612.

Common to all, as to assay: combination Emax (second highest fraction inhibited in the dose matrix, 72 h); higher = more inhibition; extreme values may be limits of the assay
In assay [1] the test system is NCI-H2452 (Mesothelioma). The essentials:
(§1)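 Bliss excess equals the observed combination effect minus the expected value EA + EB − EA·EB, where EA and EB are the effects of each agent alone. Combination Emax is the second-highest inhibition within the matrix. Inhibition was scaled from CellTiter-Glo 2.0 luminescence, with 0 set by vehicle wells and 1 by blank wells, after 72 hours of two-drug dosing of cells plated in 1536-well plates.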

The subject of assay [2] is RPMI-8402 (T-Lymphoblastic Leukemia). Put shortly:
as §1

Assay [3] deals with SBC-3 (Small Cell Lung Carcinoma). The essentials: as §1
Assay [4] concerns MG-63 (Osteosarcoma). The essentials: as §1
Assay [5] relates to A375 (Melanoma). Put shortly:
as §1

Assay [6] concerns COR-L105 (Lung Adenocarcinoma). The essentials:
as §1

Assay [7] has as its system NCI-H2009 (Lung Adenocarcinoma). The essentials:
as §1

Structures are written as SMILES.

On to `C=CCn1c(=O)c2cnc(Nc3ccc(N4CCN(C)CC4)cc3)nc2n1-c1cccc(C(C)(C)O)n1` [AZD1775] + Nc1ccn([C@@H]2O[C@H](CO)[C@@H](O)C2(F)F)c(=O)n1 [Gemcitabine] (first compound max 1 µM, partner max 0.3 µM), for which the “combination Emax” value worked out at 0.693 in assay [1]; 1 in assay [2]; 0.949 in assay [3]; 0.955 in assay [4]; 0.966 in assay [5]; 0.428 in assay [6]. Further, the “combination Emax” value in assay [7] is 0.907.
In the case of `CN(CCO)CC[C@H](CSc1ccccc1)Nc1ccc(S(=O)(=O)NC(=O)c2ccc(N3CCC([C@@H](O)c4ccccc4-c4ccc(Cl)cc4)CC3)cc2)cc1S(=O)(=O)C(F)(F)F` [AZD4320] + CS(=O)(=O)CCNCc1ccc(-c2ccc3ncnc(Nc4ccc(OCc5cccc(F)c5)c(Cl)c4)c3c2)o1 [Lapatinib] (first compound max 1 µM, 7x7, partner max 10 µM), the “combination Emax” value was found to be 0.581 in assay [1]; 0.988 in assay [2]; 0.407 in assay [3]; 0.596 in assay [4]; 0.413 in assay [5]; 0.917 in assay [6]. Moreover, the “combination Emax” value in assay [7] is 0.349.
For the compound `Cc1c2c(nn1C)CSCc1cc(n(C)n1)CSc1cc(c3ccccc3c1)OCCCc1c(C(=O)O)n(C)c3c-2c(Cl)ccc13` [AZD5991] + CC(=O)O[C@H]1C(=O)[C@@]2(C)[C@H]([C@H](OC(=O)c3ccccc3)[C@]3(O)C[C@H](OC(=O)[C@H](O)[C@@H](NC(=O)c4ccccc4)c4ccccc4)C(C)=C1C3(C)C)[C@]1(OC(C)=O)CO[C@@H]1C[C@@H]2O [Paclitaxel] (first compound max 1 µM, 7x7, partner max 3 µM), the “combination Emax” value in assay [1] stood at 0.838; in assay [2] it was 1; in assay [3] it was 0.952; in assay [4], 0.88; in assay [5] it was 0.787; in assay [6], 0.183. For the same compound, the “combination Emax” value in assay [7] turned out to be 0.715.
For the compound `Cc1c2c(nn1C)CSCc1cc(n(C)n1)CSc1cc(c3ccccc3c1)OCCCc1c(C(=O)O)n(C)c3c-2c(Cl)ccc13` [AZD5991] + CS(=O)(=O)CCNCc1ccc(-c2ccc3ncnc(Nc4ccc(OCc5cccc(F)c5)c(Cl)c4)c3c2)o1 [Lapatinib] (first compound max 1 µM, 7x7, partner max 10 µM), the “combination Emax” value in assay [1] amounted to 0.414; in assay [2], 0.955; in assay [3] it was 0.28; in assay [4], 0.157; in assay [5], 0.318; in assay [6], 0.688. In assay [7], the “combination Emax” value was found to be 0.237.
In the case of `Cc1c2c(nn1C)CSCc1cc(n(C)n1)CSc1cc(c3ccccc3c1)OCCCc1c(C(=O)O)n(C)c3c-2c(Cl)ccc13` [AZD5991] + Nc1ccn([C@@H]2O[C@H](CO)[C@@H](O)C2(F)F)c(=O)n1 [Gemcitabine] (first compound max 1 µM, 7x7, partner max 0.3 µM), the “combination Emax” value was found to be 0.319 in assay [1]; 1 in assay [2]; 0.962 in assay [3]; 0.82 in assay [4]; 0.961 in assay [5]; 0.377 in assay [6]. Also, the “combination Emax” value in assay [7] turned out to be 0.487.
Consider `C[C@@H]1COCCN1c1cc(C2([S@](C)(=N)=O)CC2)nc(-c2ccnc3[nH]ccc23)n1` [AZD6738] + C1CC(C1)(C(=O)[O-])C(=O)[O-].N.N.[Pt+2] [Carboplatin] (first compound max 10 µM, 7x7, partner max 10 µM), for which the “combination Emax” value in assay [1] amounted to 0.432; in assay [2], 0.967; in assay [3], 0.647; in assay [4], 0.524; in assay [5] it was 0.521; in assay [6] it was 0.323. In addition, in assay [7], the “combination Emax” value came to 0.466.
`C[C@@H]1COCCN1c1cc(C2([S@](C)(=N)=O)CC2)nc(-c2ccnc3[nH]ccc23)n1` [AZD6738] + Nc1ccn([C@@H]2O[C@H](CO)[C@@H](O)C2(F)F)c(=O)n1 [Gemcitabine] (first compound max 10 µM, 7x7, partner max 0.3 µM): the “combination Emax” value was found to be 0.763 in assay [1]; 1 in assay [2]; 0.97 in assay [3]; 1 in assay [4]; 0.991 in assay [5]; 0.543 in assay [6]. Also, the “combination Emax” value in assay [7] came out at 0.789.
`C[C@@H](Nc1cc(F)cc(F)c1)c1cc(C(=O)N(C)C)cc2c(=O)cc(N3CCOCC3)oc12` [AZD8186] + CC(=O)c1c(C)c2cnc(Nc3ccc(N4CCNCC4)cn3)nc2n(C2CCCC2)c1=O [Palbociclib] (first compound max 10 µM, 7x7, partner max 10 µM): the “combination Emax” value in assay [1] is 0.417; in assay [2], 0.9; in assay [3], 0.709; in assay [4], 0.633; in assay [5], 0.42; in assay [6], 0.392. In assay [7], the “combination Emax” value turned out to be 0.256.
Regarding `C[C@@H](Oc1cc(-c2cnn(C3CCNCC3)c2)cnc1N)c1c(Cl)ccc(F)c1Cl` [Crizotinib] + CC1=C(C(=CC=C1)Cl)NC(=O)C2=CN=C(S2)NC3=CC(=NC(=N3)C)N4CCN(CC4)CCO [Dasatinib] (first compound max 10 µM, 7x7, partner max 2 µM), the “combination Emax” value was 0.744 in assay [1]; 0.971 in assay [2]; 0.957 in assay [3]; 0.949 in assay [4]; 0.502 in assay [5]; 0.481 in assay [6]. In addition, the “combination Emax” value in assay [7] was 0.88.
In the case of `C[C@@H](Oc1cc(-c2cnn(C3CCNCC3)c2)cnc1N)c1c(Cl)ccc(F)c1Cl` [Crizotinib] + Cn1cnc2c(F)c(Nc3ccc(Br)cc3Cl)c(C(=O)NOCCO)cc21 [Selumetinib] (first compound max 10 µM, 7x7, partner max 10 µM), the “combination Emax” value in assay [1] was 0.551; in assay [2] it was 0.99; in assay [3], 0.97; in assay [4], 0.672; in assay [5], 0.938; in assay [6], 0.472. Besides, the “combination Emax” value in assay [7] is 0.664.
In the case of `O=C(c1cc(Cc2n[nH]c(=O)c3ccccc23)ccc1F)N1CCN(C(=O)C2CC2)CC1` [Olaparib] + CC1(C)CCC(CN2CCN(c3ccc(C(=O)NS(=O)(=O)c4ccc(NCC5CCOCC5)c([N+](=O)[O-])c4)c(Oc4cnc5[nH]ccc5c4)c3)CC2)=C(c2ccc(Cl)cc2)C1 [Venetoclax] (first compound max 10 µM, 7x7, partner max 1 µM), the “combination Emax” value in assay [1] was 0.143; in assay [2] it was 0.53; in assay [3], 0.665; in assay [4] it was 0.299; in assay [5], 0.176; in assay [6], 0.128. For the same compound, the “combination Emax” value in assay [7] worked out at 0.174.
Consider `O=C(c1cc(Cc2n[nH]c(=O)c3ccccc23)ccc1F)N1CCN(C(=O)C2CC2)CC1` [Olaparib] + CN(CC[C@H](CSC1=CC=CC=C1)NC2=C(C=C(C=C2)S(=O)(=O)NC(=O)C3=CC=C(C=C3)N4CCC(CC4)[C@H](C5=CC=CC=C5C6=CC=C(C=C6)Cl)O)S(=O)(=O)C(F)(F)F)CCO [AZD4320] (first compound max 10 µM, 7x7, partner max 1 µM), for which the “combination Emax” value is 0.182 in assay [1]; 0.935 in assay [2]; 0.842 in assay [3]; 0.332 in assay [4]; 0.24 in assay [5]; 0.219 in assay [6]. Moreover, the “combination Emax” value in assay [7] is 0.112.
`O=C(c1cc(Cc2n[nH]c(=O)c3ccccc23)ccc1F)N1CCN(C(=O)C2CC2)CC1` [Olaparib] + COc1nnc2ccc(N3CCC(c4ccc(OCCN5CCN(C)C(=O)[C@H]5C)cc4)CC3)nn12 [AZD5153] (first compound max 10 µM, 7x7, partner max 1 µM): the “combination Emax” value in assay [1] amounted to 0.407; in assay [2] it was 0.9; in assay [3] it was 0.703; in assay [4] it was 0.717; in assay [5], 0.425; in assay [6] it was 0.404. The “combination Emax” value in assay [7] turned out to be 0.374.
Consider `O=C(c1cc(Cc2n[nH]c(=O)c3ccccc23)ccc1F)N1CCN(C(=O)C2CC2)CC1` [Olaparib] + Cc1c2c(nn1C)CSCc1cc(n(C)n1)CSc1cc(c3ccccc3c1)OCCCc1c(C(=O)O)n(C)c3c-2c(Cl)ccc13 [AZD5991] (first compound max 10 µM, 7x7, partner max 1 µM), for which the “combination Emax” value came to 0.165 in assay [1]; 0.857 in assay [2]; 0.523 in assay [3]; 0.216 in assay [4]; 0.163 in assay [5]; 0.0887 in assay [6]. In assay [7], the “combination Emax” value came to 0.107.
As for `Cc1nc(-c2cn3c(n2)-c2ccc(-c4cnn(C(C)(C)C(N)=O)c4)cc2OCC3)n(C(C)C)n1` [Taselisib] + O=C(Nc1ccc2[nH]nc(-c3ccncc3)c2c1)[C@@H]1CCN(CC(=O)N2CCN(c3ccc(-c4ncccn4)cc3)CC2)C1 [SCH772984] (first compound max 10 µM, 7x7, partner max 5 µM), the “combination Emax” value in assay [1] is 0.534; in assay [2], 0.898; in assay [3], 0.76; in assay [4] it was 0.746; in assay [5], 0.918; in assay [6] it was 0.788. Further, the “combination Emax” value in assay [7] came to 0.919.
As to `CC1(C)CCC(CN2CCN(c3ccc(C(=O)NS(=O)(=O)c4ccc(NCC5CCOCC5)c([N+](=O)[O-])c4)c(Oc4cnc5[nH]ccc5c4)c3)CC2)=C(c2ccc(Cl)cc2)C1` [Venetoclax] + CS(=O)(=O)CCNCc1ccc(-c2ccc3ncnc(Nc4ccc(OCc5cccc(F)c5)c(Cl)c4)c3c2)o1 [Lapatinib] (first compound max 1 µM, 7x7, partner max 10 µM), the “combination Emax” value was found to be 0.29 in assay [1]; 0.839 in assay [2]; 0.183 in assay [3]; 0.302 in assay [4]; 0.169 in assay [5]; 0.587 in assay [6]. Moreover, the “combination Emax” value in assay [7] was 0.151.
